Measurements from PubChem BioAssay (NCI).
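Grown in 96-well plates, cells were treated for 48 hours with each compound at five concentrations. Insufficient inhibition: endpoint recorded as highest concentration tested. GI50 is the concentration that inhibits growth by half. TGI: total growth inhibition.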

Legend:
Assay in all cases: growth of human tumour cells (NCI), 48 h
[1] = tested on: A498 renal
[2] = tested on: A549 NSCLC
[3] = tested on: DU-145 prostate
[4] = tested on: KM12 colon
[5] = tested on: M14 melanoma
[6] = tested on: MCF7 breast
[7] = tested on: NCI-H522 lung
[8] = tested on: OVCAR-5 ovarian
[9] = tested on: RXF 393 renal
[10] = tested on: SN12C renal

SMILES	GI50 [1] [µM]	TGI [1] [µM]	GI50 [2] [µM]	TGI [2] [µM]	GI50 [3] [µM]	TGI [3] [µM]	GI50 [4] [µM]	TGI [4] [µM]	GI50 [5] [µM]	TGI [5] [µM]	GI50 [6] [µM]	TGI [6] [µM]	GI50 [7] [µM]	TGI [7] [µM]	GI50 [8] [µM]	TGI [8] [µM]	GI50 [9] [µM]	TGI [9] [µM]	GI50 [10] [µM]	TGI [10] [µM]
CN(C)c1ccc(/C=C\c2ccnc3ccccc23)cc1	7.57	> 26.7	5.83	> 100	12.1	> 88.5	3.66	51	4.42	> 66	0.328	10.9	6.4	> 100	12.7	> 100	3.2	> 79.6	8.81	> 74.1
C[C@@]1([C@H](OC(=O)c2ccccc2)C(N)=O)CO1	33.8	88.3	24	61.4	27.2	> 100	33.4	> 100	22.1	53.9	32	> 100	22.2	76.5	34.1	85.9	18	43.5	13.7	33.9
CCN(CC)c1ccc(/C=C/C(=O)c2ccc(Nc3nc(Nc4ccccc4)nc(Nc4ccccc4)n3)cc2)cc1	7.44	48	12.8	78.1	5.04	79.2	1.42	65.1	3.02	> 100	1.99	21.8	5.94	> 100	17.5	> 100	2.97	16.8	> 100	> 100
COc1cc(/C=C/C(=O)c2cccc(-n3cc(-c4cc(OC)c(OC)c(OC)c4)[nH]c3=O)c2)cc(OC)c1OC	20.3	> 100	3.03	18.5	2.98	13.6	1.12	2.46	2.12	4.8	0.479	2.44	1.05	2.53	4.38	13.4	1.62	3.41	2.75	18.2
O=C(Nc1ccc(Oc2ccc(F)cc2)cc1)[C@@H]1C[C@@H](Cc2ccc(F)cc2)CN1C(=O)Cn1ccnn1	8.49	27.9	5.21	> 50.4	13.6	> 85.7	9.43	24.1	8.54	25.7	3.74	17.5	5.01	19.3	4.52	17.7	2.85	11.6	5.73	21.8
Oc1ccc(Br)cc1C=Nc1cccc(C(F)(F)F)c1	–	> 100	–	> 100	–	> 100	–	> 100	–	48.6	–	> 100	–	> 100	–	> 100	–	> 100	–	> 100
O=C1Nc2ccc(Cl)cc2/C1=C\c1c(-c2ccc(Cl)cc2)nc2sc(C3CC3)nn12	1.05	6.42	3.58	13.9	5.73	17.6	15.8	> 100	5.77	21.8	4.1	16.6	4.5	26.3	11.7	42.6	1.91	5.09	3.54	14.2
O=C(CS(=O)(=O)c1nc2ccccc2nc1-c1ccccc1)Nc1ccc(F)cc1	21.6	> 100	> 100	> 100	36.1	> 100	31	97.7	> 100	> 100	43.1	> 100	48.2	> 100	> 100	> 100	> 100	> 100	33.9	> 100
NS(=O)(=O)c1ccc(Nc2cc(-c3ccc(O)c(F)c3)[nH]n2)cc1	> 25	> 25	> 25	> 25	> 25	> 25	10.3	> 25	15.4	> 25	> 25	> 25	13.9	> 25	> 25	> 25	> 25	> 25	> 25	> 25
O=C1NC(=NCc2ccccc2Cl)S/C1=C\c1ccc2ncccc2c1	4.21	> 21.5	8.5	> 25	11.2	> 25	> 21.8	> 25	16.3	> 25	9.2	> 25	4.75	> 17.9	> 25	> 25	8.49	> 25	13.1	> 25
O=C1CC(c2c[nH]c3ccc(F)cc23)C(=O)N1 (stereo not drawn)	> 100	> 100	> 100	> 100	> 100	> 100	> 100	> 100	> 100	> 100	> 100	> 100	> 100	> 100	> 100	> 100	> 100	> 100	> 100	> 100
C#Cc1cccc(Nc2ncnc3cc(NC(=O)CCl)ccc23)c1	2.77	7.28	3.59	7.93	2.8	5.91	3.29	7.13	2.56	6.4	0.961	4.73	0.414	0.894	1.12	5.63	4.03	7.78	1.29	4.81
O=C1/C(=C/c2ccc(Cl)c(Cl)c2)CN(C(=O)C(Cl)Cl)C/C1=C\c1ccc(Cl)c(Cl)c1	0.216	0.664	0.22	0.908	0.369	1.41	0.16	0.587	0.206	0.587	0.037	1.37	0.27	1.2	0.204	0.545	0.164	0.337	0.139	0.461
CSc1ccc(C2=C(c3ccccc3)C(=O)OC2)cc1	3.13	13.9	0.677	> 100	4.49	> 100	0.356	> 77	0.483	> 46.1	0.81	–	0.619	2.45	5.18	> 100	1.87	–	7.68	> 100
O=C1NC(=S)S/C1=C\c1cn(-c2ccccc2)nc1-c1ccccc1	2.99	18.2	5.88	> 100	12.6	> 100	6.24	21.7	6.75	80.2	8.31	94.1	2.96	55.1	14.3	29.6	22.4	65.2	9.93	> 100
